Key:
[1] = Solute binding efficiency of nanospheres (HPLC); format: physicochemical
Description: The concentrations of the solutes were assayed by high-performance liquid chromatography (HPLC) using a Waters 2695 HPLC system equipped with UV/vis detector (Waters 2487, Dual 1 Absorbance Detector). Chromatographic separations were achieved using a RP-C18 column (Perkin-Elmer Brownlee Analytical C-18 column, 33 mm×4.6 mm) at 25° C. […] The mobile phase was delivered at a flow rate of 1 mL/min. […] Standard calibration samples were prepared at concentrations ranging from 1 to 50 μg/mL for all solutes. […] In addition, the specificity was determined by comparing the results obtained in the analysis of placebo supernatant, containing only nanospheres, with those obtained in the analysis of all standard solutions of the solutes and no interference from nanospheres was observed. To determine the solute binding efficiency, a predetermined aliquot of the purified nanosphere-solute complex suspension was withdrawn and freeze-dried, and the dry residue was accurately weighted before thoroughly dissolving in the extraction solvent. […] Solutes complexation by the nanospheres was characterized by the following ratio: [formula] Solutions of each solute in propylene glycol (PG) were prepared by stirring an excess of the molecule in PG at room temperature for 24 h. The samples were filtered through 0.22%μm PVDF syringe filters (Millipore, Bedford, Mass.), and the filtrates were used for all subsequent characterizations and experiments. For passive permeation experiments, the equal concentration (confirmed using RP-HPLC) of all solutes in both PG and nanospheres was achieved by subsequent dilution of either PG-solute solution with PG or NSP-solute formulation with PBS.

[2] = Dye penetration into skin layers, fluorescent microscopy of cryosectioned skin after passive permeation
Description: Human skin: The full thickness dermatomed (˜500 μm) human skin derived from the abdominal regions of female Caucasian cadavers were obtained from AlloSource (Englewood, Colo.) and stored at −80° C. Just before each experiment, the skin was allowed to thaw to room temperature and then used immediately for in vitro transport studies.
The receptor compartments were filled with 0.155 M phosphate buffered saline (pH 7.4, 5.1 mL), which was stirred at 600 rpm. The fluid in each receptor compartment was maintained at 37±0.5° C. by the use of a thermostatic water pump (Haake DC10, Karlsruhe, Germany) that circulated water through the jacket surrounding each main chamber. […] The skins were initially left in the Franz cells for 1 h in order to facilitate hydration of the membranes.
In all experiments, the donor compartment of the sampling port of each Franz cell was covered with a taught layer of Parafilm®, and the whole set up was roofed with aluminum foil to prevent the dye bleaching. Each permeation experiment was conducted in sextuplicate or quadruplicate (in case of time-dependency experiments).
At the end of the permeation experiment, the excess formulation was removed from the skin surface, skin sections were detached from the diffusion cells, washed three times with PBS, and dried gently with delicate task wipers (Kimwipes). The skins were frozen at −20° C., and 0.2×0.5 cm piece from the treated area was cut out and imbedded in optimal cutting temperature compound (OCT). A cryostat (Leica Cryostat CM 3050S, Wetzlar, Germany) was used to prepare the cross-section of full skin perpendicular to the skin surface. Nine to twelve vertical sections with a thickness of 20 μm each were obtained and stored at −4° C. till analyzed microscopically.
Fluorescent microscopy. Skin sections were subjected to both fluorescent and phase-contrast microscopy using Olympus CK40 microscope equipped with a UV source and filters for fluorescent measurement. Image capture and analysis were carried out using Olympus Microsuite™ B35V program. […] Images were recorded setting the camera integration time of 500 ms. The same parameters were used for imaging all samples and no corrections for the background fluorescence were made.
Quantitative analysis of dye penetration into skin was obtained by calculating pixel intensities from fluorescence measurements of skin sections. Image analysis was carried out for the epidermis (EP; consisting of stratum corneum and the viable epidermis), superficial dermis (SD) and lower dermis (LD) as schematically represented in FIG. 5. The superficial dermis is defined as the region measuring around 100 μm below the epidermis and the lower dermis is the remaining portion of the dermis below the superficial dermis.
H&E staining of the skin section (FIG. 5) was used to define the above layers for which quantitative analysis of dyes penetration was carried out.

final concentration of solutes in nanospheres solutions [1]	change in dye penetration from EP to LD [2]	Structure (SMILES)	decrease of dye penetration from EP into the dermis [2]	decrease of fluorescence intensities from EP to LD ([2]; 24 hrs, NSP-dye formulations)	PE (penetration effect), fluorescence in epidermis ([2]; female, human, 24 h, pH 7.4)
180 µg/mL	increase	CCCCCCCCCCCC(=O)Nc1ccc2c(c1)C(=O)OC21c2ccc(O)cc2Oc2cc(O)ccc21 [DAF, 5-Dodecanoylaminofluorescein]	about two and a half fold		
190 µg/mL		COc1cc(/C=C/C(=O)CC(=O)/C=C/c2ccc(O)c(OC)c2)ccc1O [curcumin]			

Structure (SMILES)	final concentration of solutes in nanospheres solutions [1]	change in dye penetration from EP to LD [2]	decrease of dye penetration from EP into the dermis [2]	decrease of fluorescence intensities from EP to LD ([2]; 24 hrs, NSP-dye formulations)	PE (penetration effect), fluorescence in epidermis ([2]; female, human, 24 h, pH 7.4)
CCN(CC)c1ccc2nc3c4ccccc4c(=O)cc-3oc2c1 [NR, Nile Red]	200 µg/mL		about five fold	2.5 fold	48.6±1.3 ABU

From patent US8414871B2, “Controlled releases of actives in skin” (priority 2002, dated 2013)
